# Data reported in patent US8865748B2, “Compounds and compositions for stabilizing hypoxia inducible factor-2 alpha as a method for treating cancer” (Akebia Therapeutics Inc., priority 2011, dated 2014).
# Columns and labels:
# Pmel17 mRNA = assay: Evaluation of lung metastases (Pmel17 mRNA, nested PCR) in B16F10 tumor-bearing mice; type: in vivo; conditions: FIG. 5; stabilizer I.P., GM-CSF I.T.; vs. vehicle control
# Description: Lung metastases were evaluated by detection of mRNA for melanocyte-specific proteins within the lungs of tumor-bearing mice. B16F10 tumor-bearing mice were treated with GM-CSF and/or the disclosed HIF-2α stabilizer, as depicted in FIG. 3. At the time of sacrifice, lungs were excised and flash-frozen in liquid nitrogen. Frozen lungs were homogenized in liquid nitrogen and the pulverized material was dissolved in TRIzol™ reagent (Invitrogen). […] The melanocyte-specific Pmel17 was detected by nested PCR using a modification of the protocol described by Tsukamoto et al. For the initial reaction, 30 cycles of PCR were carried out (95° C. for 1 minute, 58° C. for 1 min, 72° C. for 1 min) in a 20 μL reaction volume containing 2 μL of cDNA. […] Data were analyzed according to the comparative threshold method and normalized against the GAPDH internal control transcript. Results are semi-quantitative and represent the fold difference in transcript levels in vehicle-treated control mice as compared with levels in mice treated with the disclosed HIF-2α stabilizer and/or GM-CSF.
# Lung metastases were evaluated by detection of mRNA for melanocyte-specific proteins within the lungs of tumor-bearing mice. […] Data were analyzed according to the comparative threshold method and normalized against the β-actin internal control transcript. […]
# sVEGFR-1 [1] = assay: sVEGFR-1 production by human peripheral blood monocytes (ELISA, real-time PCR); type: cell-based; conditions: monocytes stimulated with 100 ng/mL GM-CSF, presence vs. absence of 10 μM stabilizer, FIG. 11B
# Description: Human peripheral blood mononuclear cells (PBMCs) were isolated from fresh peripheral blood leukocyte source packs (American Red Cross, Columbus Ohio) by density gradient centrifugation over Lymphocyte Separation Medium (Cellgro). Monocytes were purified from total PBMCs by layering over FBS. Monocytes were cultured in endotoxin-free RPMI-1640 supplemented with 1% fetal bovine serum (FBS), 0.1% human serum albumin (HSA), and 10 μg/mL of the endotoxin inhibitor polymyxin B. In some experiments, freshly isolated monocytes were differentiated into macrophages by three-day culture in media containing 10% FBS, 1% PSA (penicillin G sodium, streptomycin sulfate, and amphotericin B), and 20 ng/mL M-CSF. Macrophages were serum-starved for 2 hours prior to stimulation. Monocytes or monocyte-derived macrophages were treated for 24 hours with 10 ng/mL GM-CSF, 10 μM disclosed HIF-2α stabilizer, or an equivalent volume of the vehicle controls (PBS or DMSO, respectively). Cell-free culture supernatants were harvested and analyzed for VEGF or sVEGFR-1 by ELISA (R&D Systems).
# (§1) Human monocytes were left untreated or were stimulated with 100 ng/mL GM-CSF at normoxia or at 0.5% O2. At various time-points, cells were harvested in Trizol reagent (Invitrogen) and RNA was extracted in chloroform and then purified using the RNeasy Minikit (Qiagen). […] Data were analyzed according to the comparative threshold method and normalized against the β-actin internal control transcript. Results are semi-quantitative and represent the fold difference in transcript levels in a particular sample as compared with levels in untreated cells from the same donor.
# Since monocyte production of VEGF was dependent on HIF-1α, the inventors herein determined whether selective stabilization of HIF-1α via inhibition of PHD2 would increase monocyte production of VEGF but not sVEGFR-1. […]
# sVEGFR-1 [2] = assay: sVEGFR-1 transcription in bone marrow-derived macrophages from LysMcre control and HIF-2α^flox/flox/LysMcre mice; type: cell-based; conditions: FIG. 11F
# Text: HIF-2α^flox/flox mice (originally developed by Dr. Celeste Simon, University of Pennsylvania) and LysMcre recombinase mice (originally developed by Irmgard Foerster, University of Duesseldorf) (both purchased from The Jackson Laboratory, Bar Harbor, Me.) were crossed to generate mice homozygous for both LysMcre and the floxed HIF-2α allele. LysMcre recombinase mice, which express no floxed alleles, were used as controls. Deletion of HIF-2α in HIF-2α^flox/flox/LysMcre macrophages, but not the LysMcre control macrophages, was confirmed at the transcript level by real-time PCR.
# To generate bone marrow-derived macrophages (BDMs), femoral bone marrow was isolated and progenitor cells were plated in RPMI-1640 supplemented with 10% FBS, 1% PSA, 10 μg/mL of polymyxin B, and 20 ng/mL of recombinant murine M-CSF. Cells were cultured for 5 days with the addition of fresh M-CSF every other day. […]
# as §1, with “O2.” for “O2. At various time-points, cells were harvested in Trizol reagent (Invitrogen) and RNA was extracted in chloroform and then purified using the RNeasy Minikit (Qiagen).”, “donor. […]” for “donor.”
structure (smiles),measurement,setting,value
"O=C(O)CNC(=O)c1ncc(-c2cccc(F)c2)cc1O [disclosed HIF-2α stabilizer, {[5-(3-Fluorophenyl)-3-hydroxypyridine-2-carbonyl]amino}acetic acid]",relative metastasis to the lung as measured by Pmel17 mRNA expression,Pmel17 mRNA,reduced metastasis
same,"sVEGFR-1 production, protein level",sVEGFR-1 [1]; p=0.007,increased significantly
same,"sVEGFR-1 production, transcript level",sVEGFR-1 [1]; p=0.033,increased significantly
same,sVEGFR-1 transcription,"sVEGFR-1 [2]; HIF-2α-deficient macrophages, p=0.881",not
same,sVEGFR-1 transcription,"sVEGFR-1 [2]; control macrophages, p=0.036",induced
